Experimental data as given in patent publication US8906952B2, “Indole derivative or pharmaceutically acceptable salt thereof, preparation method thereof, and pharmaceutical composition for preventing or treating metabolic diseases containing same as active ingredient” (Korea Research Institute of Bioscience and Biotechnology, priority 2011, dated 2014).

Assays:
[1] = target: T1, human DGAT1 (Homo sapiens, UniProt O75907); assay: DGAT enzyme inhibition test, hDGAT1 enzyme from sf9 insect cells; format: biochemical; conditions: enzyme from sf9 cells overexpressing hDGAT1; read-out: hDGAT-1 (sf9) IC50
T1 construct: made in house; host or cells: sf9 insect cells
T1 sequence (O75907 1-488): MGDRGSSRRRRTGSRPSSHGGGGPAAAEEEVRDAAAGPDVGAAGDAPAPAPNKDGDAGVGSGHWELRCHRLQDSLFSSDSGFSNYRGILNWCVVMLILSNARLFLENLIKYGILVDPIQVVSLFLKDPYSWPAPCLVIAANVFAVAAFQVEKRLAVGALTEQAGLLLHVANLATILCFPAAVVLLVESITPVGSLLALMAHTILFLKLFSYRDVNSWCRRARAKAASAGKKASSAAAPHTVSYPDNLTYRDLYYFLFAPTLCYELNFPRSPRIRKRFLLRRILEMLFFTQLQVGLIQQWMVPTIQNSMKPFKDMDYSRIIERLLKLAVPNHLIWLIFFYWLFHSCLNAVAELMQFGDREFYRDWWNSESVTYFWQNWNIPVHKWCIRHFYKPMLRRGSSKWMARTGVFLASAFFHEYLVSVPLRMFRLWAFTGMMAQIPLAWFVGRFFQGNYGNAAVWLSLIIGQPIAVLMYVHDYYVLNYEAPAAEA
From the text: (§1) To investigate inhibitory effect of the compounds of Examples 1-33 against DGAT enzyme activity, DGAT enzyme inhibition and DGAT2 selectivity were investigated using zymogen including:
1) hDGAT1 and hDGAT2 enzymes, derived from insect cell overexpressing human DGAT1 and DGAT2 (‘sf9’), respectively,
(§2) To be specific, for the purpose of measuring human-derived DGAT enzyme inhibitory activity, using the zymogen, including enzymes derived from insect cell overexpressing human DGAT1 and DGAT2 (‘sf9’), microsomal protein isolated from human duodenal adenocarcinoma (‘Hutu 80’), and microsomal protein isolated from rat, and according to Coleman et al., (Methods Enzymol., 98-103, 1992), and substrate including 1,2-diacylglycerol(Sigma, D0138) and [^14C]palmitoyl-CoA (Amersham, CFA583), the amount of radiation of [^14C]triacylglycerol produced after enzymatic reaction was measured.
(§3) To be more specific, to the reaction solution containing 175 mM Tris-HCl (pH 8.0), 20 μl bovine serum albumin (10 mg/ml), 100 mM magnesium chloride, 30 μM [^14C]palmitoyl CoA (0.02 μCi, Amersham) and 200 μM 1,2-dioleoylglycerol, reagent dissolved in dimethylsulfoxide (10.0 μl) was added. After introducing 100 to 200 μg isolated microsomal protein and allowing the same to react at 25° C. for 10 min, the reaction was stopped by adding 1.5 ml stop solution (2-propanol:heptane:water=80:20:2, v:v:v). To isolate the product of the reaction (i.e., [^14C]triacylglycerol), 1 ml heptane and 0.5 ml distilled water were added and then decocted. After taking 1 ml supernatant, 2 ml alkaline ethanol solution (ethanol:0.5 N sodium hydroxide:water=50:10:40, v:v:v) were added and then decocted. After taking 0.65 ml supernatant from the decoction, the amount of radiation was measured with liquid scintillation counter (LSC). The DGAT inhibitory activity was calculated with Mathematical Expression 1 below:
(§4) T denotes cpm of experimental group in which the enzymatic reaction solution was treated with the sample,
(§5) C denotes cpm of control group in which the enzymatic reaction solution was not treated with the sample, and
(§6) B denotes cpm of control group treated with the sample without zymogen.

[2] = tested on: HepG2 cells; assay: DGAT inhibitory effect in HepG2 cells (triglyceride production from [14C]glycerol); format: cell-based; conditions: Homo sapiens; for activity at 10 µM: HepG2, 6 h, DMSO control = 100, read-out: Triglyceride production rate (%)/HepG2 cells at 10 μM; for inhibition at 10 µM: HepG2, 10 μM, read-out: biosynthesis inhibition rate of triglyceride
Experimental: To investigate inhibition effect on intracellular DGAT enzyme activity of the compounds obtained in Examples 1-51, intracellular DGAT enzyme activity was measured using human-derived liver HepG2 cells.
HepG2 cells were purchased from ATCC, and cultured in 37° C., 5% CO2 incubator including minimum essential medium (2 mM L-glutamine, earle's BSS adjusted to contain 1.5 g/L sodium bicarbonate, 0.1 mM nonessential amino acids, and 1 mM sodium pyruvate) added with 10% fetal bovine serum (FBS) and 1% antibiotic (100 U/ml penicillin and 100 µg/ml streptomycin).
The intracellular DGAT enzyme activity was measured based on an amount of triglycerides produced in the cultured HepG2 cells, by adding 10 μM enzyme inhibitor compounds obtained in Examples 1-51, respectively, and then determining the effect of the enzyme inhibitors according to reduction rate of the triglyceride production.
Specifically, cells were seeded 1×10^6 cell/ml per well of the 24 well culture plate, and 24 hours after incubation, medium was exchanged with FBS-free DMEM medium, and sample of 0.2 mCi [^14C]glycerol (Amersham) was added as substrate, and the reaction was allowed to occur for 6 hr. The induced production of triglyceride was catalyzed by the DGAT enzyme, and DGAT enzyme activity was determined based on the amount of production of triglyceride which was measured based on the amount of radiation. The sample was dissolved in dimethylsulfoxide (DMSO) to be used, and the control group in the triglyceride production reaction was reacted with dimethylsulfoxide only (i.e., without sample), and the amount of the triglyceride production rate was set to 100.
After the reaction completed, the substrate [^14C]glycerol which was either not absorbed into cells or not used for the reaction, were removed with phosphate-buffer-saline (PBS), and 0.5 ml extraction solvent (hexane:isopropanol=3:2, v:v) was added to extract full fat containing triglycerides. With 0.5 ml extraction solvent, extract was obtained two times for 30 min each, and 1 ml of the extract was concentrated with nitrogen gas. After removing the extraction solvent, the total fat was dissolved in organic solvent (chloroform:methanol=2:1) and spotted with thin-layer chromatography (TLC:silica gel 60F254, thickness: 0.5 mm, Merck) on the developing solvent (hexane:diethyl ether:acetic acid=80:20:1, v: v: v). Triglycerides (Rf value: 0.4) were isolated on TLC, and after exposing the TLC plate to the film with photosensitivity to radiation energy (imaging plate' Fujifilm, BMS-MS 2040) for 3 hr, the amount of [^14C] radiation of triglyceride was measured by imaging analysis (FLA 7000). The remaining cells after the extraction were dissolved in 0.3 ml 0.1 N sodium hydroxide for use in the measurement of protein concentration of the cells used for the reaction.
The experimental errors among the respective experimental groups were compensated with the experimental value which was obtained by dividing the measured radiation of triglyceride by protein concentration, and the production rate of triglyceride according to the respective compounds of Examples 1-51 are tabulated below.

[3] = target: T2, hDGAT-1 (HuTu 80) (Homo sapiens, UniProt O75907); assay: DGAT enzyme inhibition test, microsomal protein from human duodenal adenocarcinoma (Hutu 80); format: biochemical; conditions: microsomal protein from HuTu 80
T2 construct: microsomal protein isolated from human duodenal adenocarcinoma (‘Hutu 80’); endogenous in cells; host or cells: HuTu 80 human duodenal adenocarcinoma cells (microsomes)
T2 sequence (O75907 1-488): T1 sequence (O75907 1-488)
From the text: as §1
2) DGAT enzyme derived from human duodenal adenocarcinoma (‘Hutu 80’), and
as §2, §3, §4, §5, §6

Row | Compound | IC50 [1] [µM] | IC50 [3] [µM] | activity at 10 µM [2] [%] | inhibition at 10 µM [2] [%]
1 | CC(C)N(NC(=O)c1cccc(OCC(N)=O)c1)C(=O)/C=C/c1cn(C(=O)OC(C)(C)C)c2ccccc12 [Example 20, (E)-tert-butyl 3-(3-(2-(3-(2-amino-2-oxoethoxy)benzoyl)-1-isopropylhydrazinyl)-3-oxoprop-1-enyl)-1H-indole-1-carboxylate] | > 100 | 73.3 | 109 | –
2 | CC(C)N(NC(=O)c1cccc(O)c1)C(=O)/C=C/c1cn(C(=O)OC(C)(C)C)c2ccccc12 [Example 4, (E)-tert-butyl 3-(3-(2-(3-hydroxybenzoyl)-1-isopropylhydrazinyl)-3-oxoprop-1-enyl)-1H-indole-1-carboxylate] | > 100 | 12.4 | 86.7 | –
3 | CC(C)N(NC(=O)c1cccc(OCC(=O)O)c1)C(=O)/C=C/c1cn(C(=O)OC(C)(C)C)c2ccccc12 [Example 19, (E)-2-(3-(2-(3-(1-(tert-butoxycarbonyl)-1H-indol-3-yl)acryloyl)-2-isopropylhydrazinecarbonyl)phenoxy)acetic acid] | > 100 | > 100 | 103 | –
4 | CC(C)N(NC(=O)c1ccc(Br)cc1)C(=O)/C=C/c1cn(C(=O)OC(C)(C)C)c2ccccc12 [Example 13, (E)-tert-butyl 3-(3-(2-(4-bromobenzoyl)-1-isopropylhydrazinyl)-3-oxoprop-1-enyl)-1H-indole-1-carboxylate] | 20.4 | 8.1 | 87.1 | –
5 | Cc1ccc(C(=O)NN(C(=O)/C=C/c2cn(C(=O)OC(C)(C)C)c3ccccc23)C(C)C)cc1 [Example 48, (E)-tert-butyl 3-(3-(1-isopropyl-2-(4-methylbenzoyl)hydrazinyl)-3-oxoprop-1-enyl)-1H-indole-1-carboxylate] | 9.8 | – | 96.7 | –
6 | CC(C)N(NC(=O)c1ccccc1)C(=O)CCc1c[nH]c2ccccc12 [Example 23, N′-(3-(1H-indol-3-yl)propanoyl)-N′-isopropylbenzohydrazide] | 95.1 | 25.8 | 87.7 | –
7 | CC(C)N(NC(=O)c1cccc(F)c1)C(=O)/C=C/c1cn(C(=O)OC(C)(C)C)c2ccccc12 [Example 15, (E)-tert-butyl 3-(3-(2-(3-fluorobenzoyl)-1-isopropylhydrazinyl)-3-oxoprop-1-enyl)-1H-indole-1-carboxylate] | 20.4 | 1.1 | 71.2 | 20 to 30
8 | CC(C)(C)OC(=O)n1cc(/C=C/C(=O)NNS(=O)(=O)c2ccccc2)c2ccccc21 [Example 17, (E)-tert-butyl 3-(3-oxo-3-(2-(phenylsulfonyl)hydrazinyl)prop-1-enyl)-1H-indole-1-carboxylate] | > 100 | > 100 | 81.7 | –
9 | Cc1cccc(C(=O)NN(C(=O)/C=C/c2cn(C(=O)OC(C)(C)C)c3ccccc23)C(C)C)c1 [Example 47, (E)-tert-butyl 3-(3-(1-isopropyl-2-(3-methylbenzoyl)hydrazinyl)-3-oxoprop-1-enyl)-1H-indole-1-carboxylate] | 2.9 | – | 74.7 | 20 to 30
10 | CC(C)N(NC(=O)c1ccc(F)cc1)C(=O)/C=C/c1cn(C(=O)OC(C)(C)C)c2ccccc12 [Example 44, (E)-tert-butyl 3-(3-(2-(4-fluorobenzoyl)-1-isopropylhydrazinyl)-3-oxoprop-1-enyl)-1H-indole-1-carboxylate] | 2.1 | – | 94.8 | –

Further lines, with some results ahead:

Row | IC50 [1] [µM] | IC50 [3] [µM] | Compound | activity at 10 µM [2] [%] | inhibition at 10 µM [2] [%]
11 | 11.8 | 2.6 | CC(C)=CCn1cc(/C=C/C(=O)N(NC(=O)c2ccccc2)C(C)C)c2ccccc21 [Example 27, (E)-N′-isopropyl-N′-(3-(1-(3-methylbut-2-enyl)-1H-indol-3-yl)acryloyl)benzohydrazide] | 58.5 | –
12 | 13.6 | 2.9 | CC(C)N(NC(=O)c1ccccc1)C(=O)/C=C/c1cn(Cc2ccccc2)c2ccccc12 [Example 26, (E)-N′-(3-(1-benzyl-1H-indol-3-yl)acryloyl)-N′-isopropylbenzohydrazide] | 59.8 | 30 to 40
13 | 8.8 | 2.7 | CC(C)N(NC(=O)c1ccc(Cl)cc1)C(=O)/C=C/c1cn(C(=O)OC(C)(C)C)c2ccccc12 [Example 14, (E)-tert-butyl 3-(3-(2-(4-chlorobenzoyl)-1-isopropylhydrazinyl)-3-oxoprop-1-enyl)-1H-indole-1-carboxylate] | 84.4 | –
14 | 9.3 | 5.1 | CC(C)N(NC(=O)c1ccccc1)C(=O)/C=C/c1cn(C(=O)C(C)(C)C)c2ccccc12 [Example 31, (E)-N′-isopropyl-N′-(3-(1-pivaloyl-1H-indol-3-yl)acryloyl)benzohydrazide] | 93.3 | –
15 | 28.3 | 29.2 | CC(C)N(NC(=O)c1ccccc1)C(=O)/C=C/c1cn(C)c2ccccc12 [Example 25] | 88.6 | –
16 | 1.5 | – | CC(C)=CCn1cc(/C=C/C(=O)N(NC(=O)c2ccc(F)cc2)C(C)C)c2ccccc21 [Example 49, (E)-4-fluoro-N′-isopropyl-N′-(3-(1-(3-methylbut-2-enyl)-1H-indol-3-yl)acryloyl)benzohydrazide] | 55.7 | –
17 | 1 | – | CC(C)CCn1cc(/C=C/C(=O)N(NC(=O)c2ccc(F)cc2)C(C)C)c2ccccc21 [Example 46, (E)-4-fluoro-N′-(3-(1-isopentyl-1H-indol-3-yl)acryloyl)-N′-isopropylbenzohydrazide] | 63.5 | 30 to 40
